Measurements from ChEMBL document CHEMBL1201862, “PubChem BioAssay data set” (2004).
Blank lines part the entries; values can stand above or below the compound they belong to. Activity calls are given as the source filed them.

How the values were obtained:
[1] = test system: BJ; assay: cytotoxicity toward BJ-TERT fibroblasts, dose response, cell-based, RAS-independent, luminescence (AID 1933); type: functional; conditions: Homo sapiens
[2] = test system: BJ; assay: cells; type: functional, cell-based; conditions: Homo sapiens
[3] = test system: BJ; assay: cytotoxicity toward BJ-TERT-LT-ST fibroblasts, dose response, cell-based, RAS-independent, luminescence (AID 1935); type: functional; conditions: Homo sapiens;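 further: BJ fibroblasts immortalized with TERT plus LT and ST oncogenes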
[4] = cytotoxicity toward DRD oncogenic fibroblasts, dose response, cell-based, non-viral oncogenic, luminescence (AID 1934); type: functional; conditions: Homo sapiens
[5] = cytotoxicity in HEK-293T cells, dose response, cytotoxicity control for TCR NF-kB inhibitor project, luminescence, T-cell screen hits (AID 489026); type: functional, cell-based;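 further: cells exposed to compound about 14 hours before the viability readout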
[6] = test system: BJ; assay: cytotoxicity toward Ras-transformed BJeLR fibroblasts, dose response, cell-based, alamar blue fluorescence, cherrypicked samples (AID 2631); type: functional; conditions: Homo sapiens;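 further: confirmatory dose-response assay in RAS-dependent BJ fibroblasts engineered with TERT, LT and ST, with cytotoxicity read by fluorescence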
[7] = target: T1, Sentrin-specific protease 8 (Homo sapiens, UniProt Q96LD8); type: functional
T1 sequence (Q96LD8 whole entry): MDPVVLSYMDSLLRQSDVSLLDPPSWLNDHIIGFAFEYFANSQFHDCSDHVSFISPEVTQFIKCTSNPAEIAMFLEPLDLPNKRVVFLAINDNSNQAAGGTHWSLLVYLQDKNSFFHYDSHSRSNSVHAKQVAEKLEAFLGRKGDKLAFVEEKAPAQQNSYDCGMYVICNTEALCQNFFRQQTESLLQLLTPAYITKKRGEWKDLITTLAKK

[8] = target: T1, Sentrin-specific protease 8; type: functional; remark: listed apart in the source
[9] = target: T2, Probable nicotinate-nucleotide adenylyltransferase (Staphylococcus aureus (strain N315), UniProt P65502); type: functional, Staphylococcus aureus subsp. aureus N315;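 on IC50 Mean: confirmatory dose-response retesting of NadD inhibitor hits first found in an ultra-high-throughput screen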
[10] = target: T2, Probable nicotinate-nucleotide adenylyltransferase; type: functional, Staphylococcus aureus subsp. aureus N315; conditions: read-out: IC50_Mean
[11] = inhibitors of HIV Env-driven cell fusion, dose response, cherry-pick (AID 652057); type: functional, cell-based
[12] = CEM21 lymphoblast cell cytotoxicity, dose response, cytotoxicity control for viral fusion inhibitor project, CellTiter-Glo luminescence, cherry-picked (AID 652042); type: functional, cell-based;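 further: potency for signal decrease meaning cytotoxicity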
[13] = inhibitors of clade B AD8 Env fusion, dose response, cell-based, cherry-pick (AID 652062); type: functional;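 further: luciferase signal from cell-cell fusion driven by HIV-1 clade B AD8 Env; potency is for inhibitors of fusion seen as a drop in luminescence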
[14] = target: T3, DNA repair and recombination protein RAD54-like (Homo sapiens, UniProt Q92698); assay: inhibitors of human RAD54 branch migration, confirmation, biochemical, fluorescence, cherry-picked samples, dose series (AID 651657); type: functional
T3 sequence (Q92698 whole entry): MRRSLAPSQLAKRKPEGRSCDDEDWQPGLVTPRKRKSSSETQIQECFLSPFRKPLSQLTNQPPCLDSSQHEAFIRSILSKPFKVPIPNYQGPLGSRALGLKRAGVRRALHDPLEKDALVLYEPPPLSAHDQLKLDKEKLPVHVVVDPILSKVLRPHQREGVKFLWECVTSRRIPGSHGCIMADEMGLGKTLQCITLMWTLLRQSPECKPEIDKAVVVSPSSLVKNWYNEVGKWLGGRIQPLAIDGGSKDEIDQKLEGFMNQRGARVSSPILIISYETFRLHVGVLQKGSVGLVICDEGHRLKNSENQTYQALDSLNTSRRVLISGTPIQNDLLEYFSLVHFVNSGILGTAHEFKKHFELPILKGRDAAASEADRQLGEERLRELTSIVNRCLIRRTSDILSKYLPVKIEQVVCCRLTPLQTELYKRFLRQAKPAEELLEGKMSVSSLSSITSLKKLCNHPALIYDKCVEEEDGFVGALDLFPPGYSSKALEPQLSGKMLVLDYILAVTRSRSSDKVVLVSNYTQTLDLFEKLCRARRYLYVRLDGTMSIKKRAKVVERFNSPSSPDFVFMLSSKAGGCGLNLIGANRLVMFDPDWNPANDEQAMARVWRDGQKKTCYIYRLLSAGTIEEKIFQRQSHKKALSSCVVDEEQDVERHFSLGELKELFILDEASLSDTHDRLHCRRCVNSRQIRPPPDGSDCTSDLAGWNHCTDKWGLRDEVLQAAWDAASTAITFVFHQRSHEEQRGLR

[15] = target: T4, DNA repair protein RAD52 homolog (Homo sapiens, UniProt P43351); type: functional, biochemical
T4 sequence (P43351 whole entry): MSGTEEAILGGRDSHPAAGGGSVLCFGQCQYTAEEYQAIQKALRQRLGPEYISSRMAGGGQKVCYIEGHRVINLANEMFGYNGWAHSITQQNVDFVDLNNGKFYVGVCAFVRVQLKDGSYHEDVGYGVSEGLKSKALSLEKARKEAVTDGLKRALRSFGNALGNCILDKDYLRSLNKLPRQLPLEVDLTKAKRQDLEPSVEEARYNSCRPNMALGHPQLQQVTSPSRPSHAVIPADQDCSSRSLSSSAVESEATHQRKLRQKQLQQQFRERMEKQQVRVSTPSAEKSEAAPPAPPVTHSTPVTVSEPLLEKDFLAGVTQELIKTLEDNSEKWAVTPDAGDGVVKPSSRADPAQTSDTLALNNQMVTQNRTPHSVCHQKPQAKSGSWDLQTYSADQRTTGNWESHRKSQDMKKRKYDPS

[16] = test system: INS1; assay: beta cell apoptosis inhibitors, cytokine rescue, dose response, luminescence, retest (AID 449756); type: functional, cell-based; conditions: Rattus norvegicus;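 further: cell death triggered by IL-1 beta plus TNF-alpha plus IFN-gamma mixture; protective hits raise ATP signal compared with cytokine alone wells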
[17] = target: T5, Cysteine protease ATG4B (Homo sapiens, UniProt Q9Y4P1); type: functional;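 further: Fluorescence-based dose-response confirmation assay measuring inhibition of ATG4B activity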
T5 sequence (Q9Y4P1 whole entry): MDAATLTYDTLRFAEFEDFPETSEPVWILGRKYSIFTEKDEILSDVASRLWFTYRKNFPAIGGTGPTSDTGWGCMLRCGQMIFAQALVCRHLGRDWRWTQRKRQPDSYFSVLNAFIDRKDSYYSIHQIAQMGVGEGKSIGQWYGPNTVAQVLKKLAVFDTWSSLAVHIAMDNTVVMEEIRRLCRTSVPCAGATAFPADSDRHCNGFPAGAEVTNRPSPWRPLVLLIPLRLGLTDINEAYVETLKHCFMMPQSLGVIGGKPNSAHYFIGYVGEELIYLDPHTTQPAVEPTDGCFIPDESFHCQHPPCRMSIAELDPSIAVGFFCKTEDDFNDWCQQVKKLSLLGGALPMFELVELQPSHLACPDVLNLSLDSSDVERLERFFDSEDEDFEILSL

[18] = target: Phospholipase A2 (Homo sapiens, UniProt P04054); type: functional;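 further: confirmatory dose-response counterscreen on phospholipase A2, testing hits that came from an ultra-high-throughput screen for ATG4B inhibitors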
Phospholipase A2, sequence (P04054 whole entry): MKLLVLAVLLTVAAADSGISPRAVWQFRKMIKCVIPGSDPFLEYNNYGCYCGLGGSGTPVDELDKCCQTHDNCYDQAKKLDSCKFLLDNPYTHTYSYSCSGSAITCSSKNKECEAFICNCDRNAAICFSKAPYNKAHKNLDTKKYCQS

IC50 [9]: 11.6 µM (active) | IC50 [10]: 28.7 µM (active)
SMILES: CCOC(=O)c1c(-c2ccccc2Cl)csc1NC(=O)CSc1nc(C)cc(=O)[nH]1

AC50 [14]: 6.36 µM (active) | AC50 [15]: 2.35 µM (active)
SMILES: COc1ccc(-c2nn(C)c3sc(C(=O)NCCN(C)C)cc23)cc1OC

AC50 [14]: 26.7 µM (active) | AC50 [15]: 2.42 µM (active)
SMILES: COc1cccc(-c2cnc3c(NC(C)=O)cc(-c4cccc(C(=O)NCCN(C)C)c4)cn23)c1

IC50 [17]: 20.5 µM (inactive) | IC50 [18]: 16.6 µM (active) | IC50 [9]: 9.52 µM (active) | IC50 [10]: 52.9 µM (active)
SMILES: CCCc1cc(=O)[nH]c(SCC(=O)N2N=C(c3ccc(Cl)cc3)CC2c2ccco2)n1 (centres undefined)

AC50 [14]: 8.19 µM (active) | AC50 [15]: 4.63 µM (active)
SMILES: Cc1cccn2c(=O)c3cc(C(=O)NCCN4CCOCC4)c(=N)n(CCCN4CCOCC4)c3nc12

Continued, compound first:

SMILES: C[C@@H]1C=CC(=O)O[C@@H]1c1ccc(Cl)cc1
EC50 [1]: 21.3 µM (active) | EC50 [2]: 23.8 µM (active) | EC50 [3]: 16.7 µM (active) | EC50 [4]: 5.84 µM (active) | IC50 [5]: > 80 µM (inactive) | EC50 [6]: 0.547 µM (active)

SMILES: O=C(c1ncn(Cc2ccccc2)c1C(=O)N1CCc2ccccc2C1)N1CCc2ccccc2C1
IC50 [7]: > 100 µM (inactive) | IC50 [8]: 16 µM (active)

SMILES: CN(C)c1ccc2c(c1)[C@@H]1C[C@H](CC(=O)NCc3ccc(-c4ccccc4)cc3)O[C@@H](CO)[C@@H]1O2
AC50 [11]: < 0.26 µM (active) | AC50 [12]: 40.9 µM (active) | AC50 [13]: 2.51 µM (active)

SMILES: O=C(COc1ccc(Cl)cc1)Nc1ccc(C(=O)NCc2cccnc2)cc1
EC50 [1]: > 150 µM (not active) | EC50 [2]: 2.87 µM (active) | EC50 [3]: 18.8 µM (inconclusive) | EC50 [4]: > 150 µM (inconclusive) | EC50 [6]: 25.6 µM (active) | AC50 [16]: < 0.195 µM (active)
